Source: patent US6406853B1, “Interventions to mimic the effects of calorie restriction” (The Regents of the University of California, priority 1999, dated 2002)
Entries after “also recorded” stand apart in the source; their conditions may differ. Where two headings read alike, the source gives them in different places.

Experiments:
[1] = STZ-treated animals; general statement; cited from earlier work
hepatic gene expression = test: Global hepatic gene expression profile (GeneChip arrays, correlation coefficients); assay type: in vivo, mice
Procedure: GeneChip oligonucleotide-based high-density array RNA expression assays were performed according to the standard Affrymetrix protocol. The biotinylated, fragmented cRNA was hybridized to the Mu11KsubA and Mu11KsubB GeneChip arrays (Affymetrix, Santa Clara, Calif.), which contain targets for more than 11,000 known mouse genes and ESTs. The arrays were washed, stained and scanned. Scanned image analysis and data quantification were performed using the Affymetrix GeneChip analysis suite v3.2 at default parameter settings. Resultant data were normalized by global scaling.
Data analysis. Data sets were normalized furher using GeneSpring 3.0 (Silicon Genetics, San Carlos, Calif.). Negative expression levels were forced to zero, and the expression data for each animal divided by the median of all experimental values for that chip above an expression level of 10. This step reduced cliip-to-chip signal variation. Fold change in expression was calculated by dividing the mean of the expression levels in the CR groups by the mean of the expression levels in the control group.

GRP78 mRNA = test: Hepatic GRP78 mRNA in fasted and refed mice (dot-blot); assay type: in vivo; conditions: liver; for GRP78 mRNA response to feeding (refed mice): fasted 48 h, i.p. injection 30 min before and 30 min after feeding, killed 1.5 h after feeding, dibutyryl-cAMP given with theophylline; for GRP78 mRNA in fasted mice: mice fasted 48 h, two i.p. injections; for postprandial induction of GRP78 mRNA in STZ-diabetic mice: STZ-induced diabetes combined with dibutyryl-cAMP and theophylline
Procedure: (§1) Retired male Swiss-Webster breeder mice were purchased from Jackson Laboratories. Beginning 30 days before the studies, the mice were fed Monday and Wednesday 11 g and Friday 16.6 g of the control diet daily at 0900 h. In fasting-feeding studies, mice were deprived of food for 48 h, fed 5.5 g of the control diet at 0900 h, and killed 90 min later. The food was consumed within 30 min. Diabetes was induced by three weekly intraperitoneal injections of streptozotocin [10 mg/100 g body weight (b.w.)] in 50 mM sodium citrate, pH 4.5. Mice were diabetic one week after the last injection. Only mice with blood glucose level higher than 3 mg/ml were used. Mice injected with equivalent volumes of sodium citrate served as controls for the STZ-diabetic mice. Adrenalectomized and sham-operated mice were purchased from Jackson Laboratories. Dibutyryl cAMP (Sigma; 18 mg.100 g b.w.), and theophylline (Sigma; 3 mg/100 g b.w), glucagon (Sigma; 300 μg/100 g b.w.), dexamethasone (Sigma; 125 μg/100 g b.w), cycloheximide (Sigma; 4 mg.100 g b.w.), and puromycin (Sigma; 10 mg.100 g b.w.), were administered intraperitonealy to mice as specified in the figure legends. Mice received two doses of each drug or drug combination. The first injection was administered 30 min before feeding, and the second injection was administered 30 min after feeding. Mice were killed 1.5 h after the start of feeding. Drug-injected mice consumed similar amounts of food as control animals during the feeding period. All animal use protocols were approved by the institutional animal use committee of the University of California, Riverside.
Mice were killed and the livers, kidneys, and muscle were removed. Muscle from the hind legs and back was removed and pooled for each animal. Tissues were flash frozen in liquid nitrogen. Approximately 0.2 g of frozen tissue was homogenized for 40 s in 4 ml of TRI Reagent (Molecular Research Center, Cincinnati, Ohio) using a Tekmar Tissuemizer (Tekmar, Cincinnait, Ohio) at a setting of 55. RNA was isolated as described by the TRI Reagent supplier. RNA was resuspended in FORMAzol (Molecular Research Center) and Northern and dot blots were performed using 20 and 10 μg of RNA respectively. The RNA was analyzed using Northern blots to verify its integrity. Dot blots were used to quantify mRNA levels (24; 27). Specific mRNA levels were normalized to the level of total RNA and/or mRNA present in each sample using hybridization with radiolabeled complementary DNA to 18S rRNA and/or transcription factor S-II, as indicated in the figure legends (12; 27). The murine ERp72 2.5 kb cDNA was excised with BamHI from pcD72-1 (19). The 1235 bp murine GRP75 coding fragment was excised with HindIII from pG7z-PBP1.8 (6). A 1.5 kb coding fragment of GRP78 cDNA was produced by digestion of p3C5 with EcoRI and PstI (15). A 1.4 kb hamster GRP94 coding fragment was produced by EcoRI and Sa/K digestion of p4A3 (15). A 664 bp coding fragment of rat calreticulin (nucleotides 148 to 812) was produced by PCR from GT10.U1 (23). The entire 2.4 kb cDNA of murine PDI was excised from pGEM59.4 with SacI and BamHII (19). A 1 kb coding fragment of hamster GRP170 cDNA was excised with EcoRI and XhoI from pCRtmII (16). The 1.9 kb cDNA of murine ERp57 was excised with HindIII and SstI from pERp61 (18). The 1 kb cDNA of murine HSC70 was excised with PstI from phsc1.5 (9). The 1.3 kb PEPCK coding fragment was produced by SphI followed by SalI digestions of pGEM5ZEP (a gift from Dr. Ganner D. K. Vanderbilt University School of Medicine, Nashville, Tenn.). The fragments were isolated by agarose gel electrophoresis and radioactively labeled using a ^T7QuickPrime Kit (Pharmacia) according to the manufacturer's instructions.

Life span of mice = assay type: in vivo; conditions: mice fed aminoguanidine
PEPCK mRNA = test: Hepatic PEPCK mRNA in fasted and refed mice (positive control); assay type: in vivo; conditions: liver; mice fasted 48 h or refed
Procedure: as §1, with “The first injection was administered 30 min before feeding, and the second injection was administered 30 min after feeding. Mice were killed 1.5 h after the start of feeding. Drug-injected mice consumed similar amounts of food as control animals during the feeding period. All animal use protocols were approved by the institutional animal use committee of the University of California, Riverside.” left out
Mice were killed and the livers, kidneys, and muscle were removed. […] The RNA was analyzed using Northern blots to verify its integrity. Dot blots were used to quantify mRNA levels (24; 27). […]

Molecule: CN(N=O)C(=O)N[C@H]1C(O)O[C@H](CO)[C@@H](O)[C@@H]1O (mixture of isomers) [STZ, streptozotocin]
- effect on life span [1]: shortens
- hepatic gene expression compared with young CR and young control mice (hepatic gene expression; STZ-diabetic mice, diabetic about 4 weeks): very different
- GRP78 mRNA response to feeding (refed mice) (GRP78 mRNA): blunted response; also recorded: significantly reduced
- GRP78 mRNA in fasted mice (GRP78 mRNA): did not modify

Molecule: N=C(N)NN [aminoguanidine, Aminoguanidine]
- effect on life span (Life span of mice): little or no effect
- correlation of gene expression with old CR or old control mice (hepatic gene expression; mice fed aminoguanidine): did not correlate
- effect on hepatic gene expression (hepatic gene expression; mice fed aminoguanidine): large effect

Molecule: C[C@@H]1C[C@@H]([C@H](O)CC2CC(=O)NC(=O)C2)C(=O)[C@@H](C)C1 [cycloheximide]
- PEPCK mRNA in both fasted and refed mice (PEPCK mRNA): increased
- GRP78 mRNA response to feeding (refed mice) (GRP78 mRNA): strongly induced
- GRP78 mRNA in fasted mice (GRP78 mRNA): strongly induced; also recorded: induced the mRNA to the same extent

Molecule: CCCC(=O)Nc1ncnc2c1ncn2[C@@H]1O[C@@H]2COP(=O)(O)O[C@H]2[C@H]1OC(=O)CCC [dibutyryl cAMP, Dibutyryl cAMP]
- postprandial induction of GRP78 mRNA in STZ-diabetic mice (GRP78 mRNA; listed as cAMP): obliterated
- postprandial induction of GRP78 mRNA in STZ-diabetic mice (GRP78 mRNA; listed as dibutyryl-cAMP): absence of a feeding response
- GRP78 mRNA response to feeding (refed mice) (GRP78 mRNA): reduced the response
- GRP78 mRNA response to feeding (refed mice) (GRP78 mRNA; listed as dibutyryl-cAMP): blunted

Molecule: COc1ccc(C[C@H](N)C(=O)N[C@H]2[C@@H](O)[C@H](n3cnc4c(N(C)C)ncnc43)O[C@@H]2CO)cc1 [puromycin]
- GRP78 mRNA response to feeding (refed mice) (GRP78 mRNA): fully induced
- GRP78 mRNA in fasted mice (GRP78 mRNA): modestly induced; also recorded: partial induction

Molecule: glucagon
- GRP78 mRNA response to feeding (refed mice) (GRP78 mRNA): reduced the response; also recorded: blunted
